We go through two molecules from ChEMBL document CHEMBL4673278, “Identification and Characterization of a Peptide from the Stony Coral Heliofungia actiniformis” (J Nat Prod, 2020).

The source made the active and inactive calls. No cut-off for these calls is given here. Bridge positions count the residues as written; N and C are the ends. Peptide text beside a SMILES is read from it.

The subject of data set [1] is Vibrio mediterranei. Nature of the data set: Antibacterial activity against Vibrio shilonii assessed as reduction in microbial growth at 0.024 to 0.113 mg/ml after 270 mins by microdilution assay. Format: functional. As to conditions: dose 0.024-0.113 mg/ml. In general terms: Dilution methods test growth across graded concentrations, often in twofold steps.
The subject of data set [2] is Enterococcus faecalis. Nature of the data set: Antibacterial activity against Enterococcus faecalis assessed as reduction in microbial growth at 0.024 to 0.113 mg/ml after 270 mins by microdilution assay. Format: functional, organism-based. As to conditions: dose 0.024-0.113 mg/ml.
The subject of data set [3] is Vibrio harveyi. Nature of the data set: Antibacterial activity against Vibrio harveyi assessed as reduction in microbial growth at 0.024 to 0.113 mg/ml after 270 mins by microdilution assay. Type of data set: functional, organism-based. To be noted: dose 0.024-0.113 mg/ml.
For data set [4], the system named is Escherichia coli. Nature of the data set: Antibacterial activity against Escherichia coli assessed as reduction in microbial growth at 0.024 to 0.113 mg/ml after 270 mins by microdilution assay. Type of data set: functional, organism-based. As to conditions: dose 0.024-0.113 mg/ml.
In data set [5] the test system is Vibrio coralliilyticus. Briefly: Antibacterial activity against Vibrio coralliilyticus assessed as reduction in microbial growth at 0.024 to 0.113 mg/ml after 270 mins by microdilution assay. Type of data set: functional. As to conditions: dose 0.024-0.113 mg/ml.
The target in data set [6] is T1, Albumin (Homo sapiens, UniProt P02768). Briefly: Binding affinity to human serum albumin assessed as remaining parent compound at 3 mM measured up to 24 hrs by RP-HPLC analysis. Format: ADME, cell-free. As to conditions: read-out: Activity.
Data set [7] deals with Pseudomonas aeruginosa. Briefly: Antibacterial activity against Pseudomonas aeruginosa assessed as reduction in microbial growth at 0.024 to 0.113 mg/ml after 270 mins by microdilution assay. To be noted: dose 0.024-0.113 mg/ml. Format: functional, organism-based.
Data set [8] relates to Staphylococcus aureus. Briefly: Antibacterial activity against methicillin-resistant Staphylococcus aureus assessed as reduction in microbial growth at 0.024 to 0.113 mg/ml after 270 mins by microdilution assay. Format: functional, organism-based. To be noted: dose 0.024-0.113 mg/ml.
Data set [9] deals with PBMC. Nature of the data set: Antiinflammatory activity against LPS-induced human PBMC cells assessed as reduction in TNF-alpha expression at 7.5 to 100 ug/ml by ELISA. Format: functional, cell-based. As to conditions: dose 7.5-100 µg/ml.
Data set [10] has as its system Streptococcus pneumoniae. Nature of the data set: Antibacterial activity against Streptococcus pneumoniae assessed as reduction in microbial growth at 0.024 to 0.113 mg/ml after 270 mins by microdilution assay. Type of data set: functional, organism-based. To be noted: dose 0.024-0.113 mg/ml.
Data set [11] addresses T1, Albumin. Briefly: Binding affinity to albumin (unknown origin) at 3 mM measured up to 24 hrs by RP-HPLC analysis. Format: ADME, cell-free. As to conditions: serum, 3000 µM.
Data set [12] has as its system Tenacibaculum skagerrakense. Briefly: Antibacterial activity against Tenacibaculum skagerrakense assessed as reduction in microbial growth at 0.024 to 0.113 mg/ml after 270 mins by microdilution assay. Type of data set: functional. As to conditions: dose 0.024-0.113 mg/ml.
The test system of data set [13] is Alteromonas macleodii. Nature of the data set: Antibacterial activity against Alteromonas macleodii assessed as reduction in microbial growth at 0.024 to 0.113 mg/ml after 270 mins by microdilution assay. Format: functional. As to conditions: dose 0.024-0.113 mg/ml.
A short description of data set [14]: Cytotoxicity against human PBMC cells assessed as reduction in cell viability at 5 to 50 ug/ml measured up to 48 hrs by CellTox Green assay. Format: cell-based. As to conditions: dose 5-50 µg/ml.
Data set [15] deals with Streptococcus pyogenes. Nature of the data set: Antibacterial activity against Streptococcus pyogenes assessed as reduction in microbial growth at 0.024 to 0.113 mg/ml after 270 mins by microdilution assay. Type of data set: functional, organism-based. As to conditions: dose 0.024-0.113 mg/ml.
Data set [16] relates to Pseudoalteromonas shioyasakiensis. Nature of the data set: Antibacterial activity against Pseudoalteromonas […] assessed as reduction in microbial growth at 0.024 to 0.113 mg/ml after 270 mins by microdilution assay. Type of data set: functional. To be noted: dose 0.024-0.113 mg/ml.
Data set [17] has as its system Klebsiella pneumoniae. Nature of the data set: Antibacterial activity against Klebsiella pneumoniae assessed as reduction in microbial growth at 0.024 to 0.113 mg/ml after 270 mins by microdilution assay. As to conditions: dose 0.024-0.113 mg/ml. Format: functional, organism-based.
Data set [18] deals with Serratia marcescens. Briefly: Antibacterial activity against Serratia marcescens assessed as reduction in microbial growth at 0.024 to 0.113 mg/ml after 270 mins by microdilution assay. Type of data set: functional, organism-based. To be noted: dose 0.024-0.113 mg/ml.

T1 sequence (P02768 whole entry): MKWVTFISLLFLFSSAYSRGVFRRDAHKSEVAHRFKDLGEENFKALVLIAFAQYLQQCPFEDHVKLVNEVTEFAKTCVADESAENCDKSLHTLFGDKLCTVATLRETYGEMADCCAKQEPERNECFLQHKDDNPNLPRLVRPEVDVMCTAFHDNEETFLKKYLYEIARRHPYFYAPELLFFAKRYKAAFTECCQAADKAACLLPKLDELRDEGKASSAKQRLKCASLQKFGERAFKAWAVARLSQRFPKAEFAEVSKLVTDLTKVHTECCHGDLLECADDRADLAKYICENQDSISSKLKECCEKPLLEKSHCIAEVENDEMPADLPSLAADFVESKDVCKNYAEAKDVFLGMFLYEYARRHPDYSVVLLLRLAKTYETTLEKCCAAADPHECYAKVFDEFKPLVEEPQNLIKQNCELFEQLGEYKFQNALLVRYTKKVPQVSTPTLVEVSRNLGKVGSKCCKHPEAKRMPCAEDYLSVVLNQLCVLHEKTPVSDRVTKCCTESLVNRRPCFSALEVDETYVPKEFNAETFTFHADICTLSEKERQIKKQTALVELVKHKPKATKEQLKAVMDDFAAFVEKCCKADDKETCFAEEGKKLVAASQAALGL

In the case of `CC[C@H](C)[C@@H]1NC(=O)[C@H](CC(C)C)NC(=O)CNC(=O)[C@H](Cc2ccccc2)NC(=O)[C@@H]2CCCN2C(=O)[C@H]([C@@H](C)O)NC(=O)[C@H](Cc2ccc(O)cc2)NC(=O)[C@H](Cc2c[nH]cn2)NC(=O)[C@@H](NC(=O)CN)CSSC[C@@H](C(=O)N[C@@H](Cc2ccccc2)C(=O)O)NC1=O` (H-GCHYTPFGLICF-OH; disulfide 2-11), the result in data set [1], in [2], in data set [3], in [4], in [5] and in [7] was inactive. For the same molecule, the result in [10], in data set [12], in data set [13], in data set [16], in [17] and in data set [18] was inactive. Further, the remaining at 24 h, 3000 µM in data set [6] was found to be 3%. Also, the result in data set [8], in [9] and in [15] was Active. Moreover, the Activity result in data set [11] was “Active”; in data set [14] it was “Non-Toxic”.
Consider `CC[C@H](C)[C@H](NC(=O)[C@@H](NC(=O)[C@@H](N)Cc1ccccc1)[C@H](C)O)C(=O)N[C@@H](Cc1ccc(O)cc1)C(=O)N1CCC[C@H]1C(=O)NCC(=O)N[C@H]1CSSC[C@@H](C(=O)O)NC(=O)[C@H](Cc2ccccc2)NC(=O)[C@H](CC(C)C)NC(=O)CNC(=O)[C@H](Cc2c[nH]cn2)NC1=O`, for which the remaining at 24 h, 3000 µM in data set [6] was found to be 85%.
